For 18 compounds, Activity, IC50 and solubility results are on record in ChEMBL document CHEMBL2016464, “Identification of Inhibitors of NOD1-Induced Nuclear Factor-κB Activation” (ACS Med Chem Lett, 2011).

In brackets after ≈: the same amount, converted by molar mass.

For one data set, the system named is HEK-293T. The data set is described as follows: Cytotoxicity against HEK293T cells at 20 uM by alamar blue assay. In kind it is cell-based. To be noted: human.
The target in data set [1] is T1, Nucleotide-binding oligomerization domain-containing protein 1 (Homo sapiens, UniProt Q9Y239).
T1 sequence (Q9Y239 whole entry): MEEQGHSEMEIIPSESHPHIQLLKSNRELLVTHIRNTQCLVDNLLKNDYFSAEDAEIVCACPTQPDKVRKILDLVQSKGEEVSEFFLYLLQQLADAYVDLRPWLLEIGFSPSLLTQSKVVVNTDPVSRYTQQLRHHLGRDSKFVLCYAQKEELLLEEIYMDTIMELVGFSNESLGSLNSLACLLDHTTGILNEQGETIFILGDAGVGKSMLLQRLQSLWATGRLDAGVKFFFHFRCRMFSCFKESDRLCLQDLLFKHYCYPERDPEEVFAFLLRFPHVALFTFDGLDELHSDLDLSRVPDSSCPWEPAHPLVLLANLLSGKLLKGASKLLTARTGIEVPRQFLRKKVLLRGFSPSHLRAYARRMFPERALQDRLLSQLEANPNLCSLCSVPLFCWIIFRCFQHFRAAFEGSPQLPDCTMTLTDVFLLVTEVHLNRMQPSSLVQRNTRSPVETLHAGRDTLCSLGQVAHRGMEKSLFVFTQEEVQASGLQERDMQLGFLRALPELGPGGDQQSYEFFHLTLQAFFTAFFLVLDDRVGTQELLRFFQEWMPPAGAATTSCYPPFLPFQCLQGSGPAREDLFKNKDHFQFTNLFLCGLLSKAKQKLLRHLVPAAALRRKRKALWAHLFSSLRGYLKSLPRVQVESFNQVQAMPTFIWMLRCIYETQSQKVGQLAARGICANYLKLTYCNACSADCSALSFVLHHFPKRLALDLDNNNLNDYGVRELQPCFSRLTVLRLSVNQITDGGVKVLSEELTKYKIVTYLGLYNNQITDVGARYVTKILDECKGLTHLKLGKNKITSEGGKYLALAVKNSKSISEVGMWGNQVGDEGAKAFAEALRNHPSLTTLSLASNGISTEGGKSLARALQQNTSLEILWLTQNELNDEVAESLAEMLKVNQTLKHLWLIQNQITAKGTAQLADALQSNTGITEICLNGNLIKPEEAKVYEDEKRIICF

Data set [2] deals with Nucleotide-binding oligomerization domain-containing protein 2 (Homo sapiens, UniProt Q9HC29).
A short description of another data set: cells. The following applies: Homo sapiens, HEK-293T, 14 h.
The nature of data set [3]: Solubility of the compound at pH 7.4. In kind it is physicochemical. The following applies: buffer.

Sequence of Nucleotide-binding oligomerization domain-containing protein 2 (Q9HC29 whole entry, the tested form may be a part): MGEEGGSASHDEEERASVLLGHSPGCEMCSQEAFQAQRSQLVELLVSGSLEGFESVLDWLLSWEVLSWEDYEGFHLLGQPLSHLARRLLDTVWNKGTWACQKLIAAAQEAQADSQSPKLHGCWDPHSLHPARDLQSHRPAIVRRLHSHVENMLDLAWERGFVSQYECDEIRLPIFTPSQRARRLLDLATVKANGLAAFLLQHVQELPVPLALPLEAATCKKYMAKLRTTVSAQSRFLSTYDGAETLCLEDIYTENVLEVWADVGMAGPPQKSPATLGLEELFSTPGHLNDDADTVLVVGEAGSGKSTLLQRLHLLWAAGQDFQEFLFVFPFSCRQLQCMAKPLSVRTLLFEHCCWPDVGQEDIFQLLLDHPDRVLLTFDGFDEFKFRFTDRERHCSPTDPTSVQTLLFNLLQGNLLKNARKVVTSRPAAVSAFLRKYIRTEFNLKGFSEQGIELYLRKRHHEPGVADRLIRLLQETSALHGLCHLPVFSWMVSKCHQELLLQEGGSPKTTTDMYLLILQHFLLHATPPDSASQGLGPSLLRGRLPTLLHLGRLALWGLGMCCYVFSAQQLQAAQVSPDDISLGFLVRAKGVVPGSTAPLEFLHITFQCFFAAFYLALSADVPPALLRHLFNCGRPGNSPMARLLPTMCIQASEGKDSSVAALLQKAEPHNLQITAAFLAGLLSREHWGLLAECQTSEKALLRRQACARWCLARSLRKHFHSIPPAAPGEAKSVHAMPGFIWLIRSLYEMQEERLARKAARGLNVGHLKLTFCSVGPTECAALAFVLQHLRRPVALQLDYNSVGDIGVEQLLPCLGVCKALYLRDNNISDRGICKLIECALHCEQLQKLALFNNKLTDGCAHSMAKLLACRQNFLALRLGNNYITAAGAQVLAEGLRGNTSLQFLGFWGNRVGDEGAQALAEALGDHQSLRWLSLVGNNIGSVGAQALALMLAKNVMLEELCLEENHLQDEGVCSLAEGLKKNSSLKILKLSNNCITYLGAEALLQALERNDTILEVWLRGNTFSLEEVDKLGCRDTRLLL
Description for cells: Inhibition of TNFalpha-induced NFkappaB activation in HEK293T cells after 14 hrs by luciferase reporter gene assay

`CCOc1ccc(C(=O)Nc2ccc(CN3CCc4ccccc4C3)cc2)cc1` had an Activity in the data set with HEK-293T of 0%. The IC50 (in data set [1]; in data set [2]; in “cells”) was more than 20 µM in each case.

For the compound `O=C(Nc1ccc(S(=O)(=O)O)cc1)c1ccc(CN2CCc3ccccc3C2)cc1`, the Activity with HEK-293T turned out to be 0%. Moreover, the 50% inhibitory concentration (IC50) (in data set [1]; in data set [2]; in “cells”) was more than 20 µM each time.

Regarding `Nc1nc2ccccc2n1C(=O)Cc1ccccc1`, the Activity in the data set with HEK-293T was 0%. Moreover, the IC50 (in data set [1]; in data set [2]; in “cells”) was more than 20 µM in each case.

In the case of `O=C(Nc1ccc(Cl)cc1)c1ccc(CCN2CCc3ccccc3C2)cc1`, in the data set on HEK-293T, the Activity was found to be 0%. Further, the half-maximal inhibitory concentration (IC50) (in data set [1]; in data set [2]; in “cells”) was more than 20 µM each time.

In the case of `CC1Cc2cc(S(=O)(=O)N3CCN(c4ccccc4)CC3)ccc2N1C(=O)C1CC1` (racemic), in the data set with HEK-293T, the Activity is 0%. The compound also showed a solubility in data set [3] of 0.1 µg/mL (≈ 0.235 µM). The figures for the IC50 (in data set [1]; in data set [2]; in the data set “cells”) were more than 20 µM, 17.4 µM and 15.3 µM, respectively.

For `O=C(Nc1ccc(CN2CCc3ccccc3C2)cc1)c1ccc(Cl)cc1`, the Activity in the data set on HEK-293T worked out at 0%. The IC50 (in data set [1]; in data set [2]; in the data set “cells”) was more than 20 µM in each case.

Consider `CSc1ccc(NC(=O)c2ccc(CN3CCc4ccccc43)cc2)cc1`, for which the Activity in the data set with HEK-293T was determined as 0%. The concentration for half-maximal inhibition (IC50) (in data set [1]; in data set [2]; in the data set “cells”) was more than 20 µM throughout.

`CCC(=O)N1CCc2cc(S(=O)(=O)N3CCN(c4ccc(C(C)=O)cc4)CC3)ccc21`: the Activity in the data set on HEK-293T amounted to 0%. The solubility in data set [3] came out at 0.1 µg/mL (≈ 0.226 µM). In addition, the IC50 (in data set [1]; in data set [2]; in the data set “cells”) was more than 20 µM each time.

`CCC(=O)N1CCc2cc(S(=O)(=O)N3CCN(c4ccc(Cl)cc4)CC3)ccc21`: the Activity in the data set on HEK-293T was found to be 0%. Besides, the solubility in data set [3] amounted to 0.1 µg/mL (≈ 0.23 µM). For the same compound, the IC50 (in data set [1]; in data set [2]; in “cells”) was more than 20 µM in each case.

Take `CCOc1ccc(NC(=O)c2ccc(CCN3CCc4ccccc4C3)cc2)cc1`: the Activity in the data set with HEK-293T stood at 0%. In addition, the IC50 (in data set [1]; in data set [2]; in the data set “cells”) was more than 20 µM throughout.

`CCOc1ccc(NC(=O)c2ccc(CN3CCc4ccccc43)cc2)cc1`: the Activity with HEK-293T is 0%. The concentration for half-maximal inhibition (IC50) (in data set [1]; in data set [2]; in the data set “cells”) was more than 20 µM throughout.

Turning to `COc1ccc(NC(=O)c2ccc(CN3CCCCC3)cc2)cc1`, in the data set on HEK-293T, the Activity was determined as 0%. Further, the IC50 (in data set [1]; in data set [2]; in “cells”) was more than 20 µM in each case.

For `Cc1ccc(N2CCN(S(=O)(=O)c3ccc4c(c3)CC(C)N4C(=O)C3CC3)CC2)cc1` (racemic), the Activity in the data set on HEK-293T amounted to 0%. The compound further displayed a solubility in data set [3] of 0.1 µg/mL (≈ 0.227 µM). In addition, the IC50 (in data set [1]; in data set [2]; in the data set “cells”) was more than 20 µM throughout.

Regarding `O=C(C1CC1)N1CCc2cc(S(=O)(=O)N3CCN(c4ccc(Cl)cc4)CC3)ccc21`, the Activity in the data set with HEK-293T turned out to be 0%. The solubility in data set [3] was 0.1 µg/mL (≈ 0.224 µM). Moreover, the IC50 (in data set [1]; in data set [2]; in the data set “cells”) was more than 20 µM in each case.

`O=C(Nc1ccc(OC(F)(F)F)cc1)c1ccc(CN2CCc3ccccc3C2)cc1` showed an Activity in the data set with HEK-293T of 0%. Besides, the IC50 in data set [1] was 0.08 µM; in data set [2] it was 0.03 µM; in “cells” it was 0.03 µM.

`CC(=O)c1ccc(N2CCN(S(=O)(=O)c3ccc4c(c3)CC(C)N4C(=O)C3CC3)CC2)cc1` (racemic) had an Activity in the data set with HEK-293T of 0%. Moreover, the concentration in solution in data set [3] (solubility) came to 0.1 µg/mL (≈ 0.214 µM). Besides, the IC50 in data set [1] was 10.3 µM; in data set [2] it was 7.9 µM; in “cells”, more than 20 µM.

Regarding `COc1ccc(NC(=O)c2ccc(CN3CCc4ccccc43)cc2)cc1`, the Activity in the data set with HEK-293T is on record as 0%. The IC50 (in data set [1]; in data set [2]; in “cells”) was more than 20 µM in each case.

Turning to `COc1ccc(C(=O)Cn2c(N)nc3ccccc32)cc1`, in the data set with HEK-293T, the Activity came to 0%. Moreover, the IC50 (in data set [1]; in data set [2]; in the data set “cells”) was more than 20 µM throughout.
